Read-outs that look alike come from different tables or passages of the source.
Experiments:
[1] = tested on: Zymoseptoria tritici; experiment: Leaf Blotch of Wheat fungicidal activity (SEPTTR); assay type: in vivo; details: for pest or weed control at 121.5 g/ha: Low Volume Cereal Activity at 121.5 g/Ha; for pest or weed control at 100 ppm: wheat, high volume
Procedure: (§1) All fungicides were evaluated using the aforementioned method for their activity vs. all target diseases, unless stated otherwise. Wheat leaf blotch and brown rust activity were also evaluated using track spray applications, in which case the fungicides were formulated as EC formulations, containing 0.1% Trycol 5941 in the spray solutions. Wheat plants (variety Yuma) were grown from seed in a greenhouse in 50% mineral soil/50% soil-less Metro mix until the first leaf was fully emerged, with 7-10 seedlings per pot. These plants were inoculated with an aqueous spore suspension of Zymoseptoria tritici either prior to or after fungicide treatments. After inoculation the plants were kept in 100% relative humidity (one day in a dark dew chamber followed by two to three days in a lighted dew chamber at 20° C.) to permit spores to germinate and infect the leaf. The plants were then transferred to a greenhouse set at 20° C. for disease to develop. When disease symptoms were fully expressed on the 1st leaves of untreated plants, infection levels were assessed on a scale of 0 to 100 percent disease severity. Percent disease control was calculated using the ratio of disease severity on treated plants relative to untreated plants.

[2] = tested on: Puccinia triticina; experiment: Wheat Brown Rust fungicidal activity (PUCCRT); assay type: in vivo; details: for pest or weed control at 121.5 g/ha: Low Volume Cereal Activity at 121.5 g/Ha; for pest or weed control at 100 ppm: wheat, high volume
Procedure: as §1, with “plants. Wheat plants (variety Yuma) were grown from seed in a greenhouse in 50% mineral soil/50% soil-less Metro mix until the first leaf was fully emerged, with 7-10 seedlings per pot. These plants were inoculated with an aqueous spore suspension of Puccinia triticina either prior to or after fungicide treatments. […] The plants were then transferred to a greenhouse set at 24° C. for disease to develop. Fungicide formulation, application and disease assessment followed the procedures as described in the Example A.” for “plants.”

[3] = 24 h, 1 Day Protectant, read-out: SEPTTR 1DP (Wheat Leaf Blotch, 1 Day Protectant)
[4] = 72 h, 3 Day Curative, read-out: SEPTTR 3DC (Wheat Leaf Blotch, 3 Day Curative)
[5] = 24 h, 1 Day Protectant, read-out: PUCCRT 1DP (Wheat Brown Rust, 1 Day Protectant)
[6] = 72 h, 3 Day Curative, read-out: PUCCRT 3DC (Wheat Brown Rust, 3 Day Curative)
[7] = 24 h, 1 Day Protectant, read-out: SEPTTR 1DP % Control rating
[8] = 72 h, 3 Day Curative, read-out: SEPTTR 3DC % Control rating
[9] = 24 h, 1 Day Protectant, read-out: PUCCRT 1DP % Control rating
[10] = 72 h, 3 Day Curative, read-out: PUCCRT 3DC % Control rating

Compound	pest or weed control at 121.5 g/ha [1, 3]	pest or weed control at 121.5 g/ha [1, 4]	pest or weed control at 121.5 g/ha [2, 5]	pest or weed control at 121.5 g/ha [2, 6]	pest or weed control at 100 ppm [1, 7]	pest or weed control at 100 ppm [1, 8]	pest or weed control at 100 ppm [2, 9]	pest or weed control at 100 ppm [2, 10]
COc1ccnc(C(=O)N[C@@H](C)C(=O)O[C@@H](C)[C@H](Oc2ccc(C)cc2Cl)c2ccc(F)cc2)c1OCOC(C)=O [Example 245]	> 80%	> 80%	> 80%	< 80%				
COc1ccnc(C(=O)N[C@@H](C)C(=O)O[C@@H](C)[C@H](Oc2ccccc2)c2ccc(F)cc2C)c1O [Example 162]					> 80%	> 80%	> 80%	> 80%
COc1ccnc(C(=O)N[C@@H](C)C(=O)O[C@@H](C)[C@H](Oc2ccc(Cl)cc2Cl)c2ccccc2)c1O [Example 120]					> 80%	< 80%	> 80%	< 80%
COc1ccnc(C(=O)N[C@@H](C)C(=O)O[C@@H](C)[C@@H](OCC(C)C)c2ccccc2)c1OC(C)=O [Example 224]	< 80%	< 80%	> 80%	> 80%				
COc1ccnc(C(=O)N[C@@H](C)C(=O)O[C@@H](C)[C@@H](Oc2ccccc2)c2ccccc2)c1O [Example 135]					> 80%	> 80%	> 80%	< 0%
COc1ccnc(C(=O)N[C@@H](C)C(=O)O[C@@H](C)[C@H](OCC2CC2)c2cccc(-c3ccccc3)c2)c1OC(C)=O [Example 222]	> 80%	> 80%	> 80%	> 80%				
COc1ccnc(C(=O)N[C@@H](C)C(=O)O[C@@H](C)[C@H](Oc2ccccc2Cl)c2ccccc2)c1O [Example 117]					> 80%	> 80%	> 80%	> 80%
COc1ccnc(C(=O)N[C@@H](C)C(=O)O[C@@H](C)[C@H](Oc2ccccc2)c2ccc(F)cc2OCC2CC2)c1O [Example 175]					> 80%	< 80%	> 80%	> 80%
COc1ccnc(C(=O)N[C@@H](C)C(=O)O[C@@H](C)[C@H](Oc2ccc(C)cc2)c2ccc(C)cc2)c1OCOC(C)=O [Example 257]	> 80%	> 80%	> 80%	> 80%				
COc1ccnc(C(=O)N[C@@H](C)C(=O)O[C@@H](C)[C@H](Oc2cccc(Cl)c2)c2ccccc2)c1O [Example 118]					> 80%	> 80%	> 80%	> 80%
COc1cc(C)ccc1[C@@H](Oc1ccccc1)[C@H](C)OC(=O)[C@H](C)NC(=O)c1nccc(OC)c1O [Example 172]					> 80%	> 80%	> 80%	> 80%
COc1ccnc(C(=O)N[C@@H](C)C(=O)O[C@@H](C)[C@H](Oc2ccccc2)c2ccc(C)cc2F)c1O [Example 164]					> 80%	> 80%	> 80%	> 80%
COc1ccnc(C(=O)N[C@@H](C)C(=O)O[C@@H](C)[C@H](Oc2ccccc2)c2ccc(F)cc2Cl)c1O [Example 163]					> 80%	> 80%	> 80%	> 80%

— patent US20180002288A1, “USE OF PICOLINAMIDES AS FUNGICIDES” (DOW AGROSCIENCES LLC, priority 2014, published 2018)
